Source: patent publication US20260285850A1, “SUBSTITUTED OXAZOLIDINONES AND IMIDAZOLINONES AS HERBICIDES” (FMC CORPORATION, priority 2023, published 2026)

Experiments:
Format in all cases: in vivo
[1] = system: foxtail, giant (giant foxtail, Setaria faberi); test: Test A postemergence application, visual injury rating 0-100; settings: 1000 g ai/ha, 0 to 100 scale, 10 days
Summary of the method: (§1)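 Visual injury ratings (0, no effect; 100, complete control) were assigned relative to untreated plants 10 days after treatment. Test chemicals, formulated with a surfactant-containing non-phytotoxic solvent, were applied in loam-sand soil either as a directed soil spray before emergence or to emerged plants, and plants were kept in a greenhouse.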

[2] = system: blackgrass (Alopecurus myosuroides); test: as above; settings: Postemergence, 1000 g ai/ha, 0 to 100 scale, 10 days
Summary of the method: as §1

[3] = system: ragweed (common ragweed, Ambrosia artemisiifolia); test: as above; settings: Postemergence, 1000 g ai/ha, 0 to 100 scale, 10 days
Summary of the method: as §1

[4] = system: galium (catchweed bedstraw, Galium aparine); test: as above; settings: Postemergence, 1000 g ai/ha, 0 to 100 scale, 10 days
Summary of the method: as §1

[5] = system: palmer (palmer amaranth, palmer pigweed, Amaranthus palmeri); test: as above; settings: Postemergence, 1000 g ai/ha, 0 to 100 scale, 10 days
Summary of the method: as §1

[6] = system: barnyardgrass (Echinochloa crus-galli); test: as above; settings: Postemergence, 1000 g ai/ha, 0 to 100 scale, 10 days
Summary of the method: as §1

[7] = system: ryegrass, Italian (italian ryegrass, Lolium multiflorum); test: as above; settings: Postemergence, 1000 g ai/ha, 0 to 100 scale, 10 days
Summary of the method: as §1

[8] = system: horseweed (Erigeron canadensis); test: as above; settings: Postemergence, 1000 g ai/ha, 0 to 100 scale, 10 days
Summary of the method: as §1

kochia (Bassia scoparia) [9] = test: as above; settings: Postemergence, 1000 g ai/ha, 0 to 100 scale, 10 days
Summary of the method: as §1

[10] = system: barnyardgrass (Echinochloa crusgalli); test: Test B flooded paddy test, visual plant response rating 0-100; settings: 250 g ai/ha, Flood, applied to paddy water, evaluated after 13 days
Summary of the method: (§2)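 Greenhouse, 13 d. Seedlings at 2-leaf stage, pots flooded to 3 cm, compound delivered into floodwater, water level held constant. Evaluated visually relative to controls.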

[11] = system: sedge, umbrella (small-flower umbrella sedge, Cyperus difformis); test: as above; settings: 250 g ai/ha, Flood, applied to paddy water, evaluated after 13 days
Summary of the method: as §2

[12] = system: ducksalad (Heteranthera limosa); test: as above; settings: 250 g ai/ha, Flood, applied to paddy water, evaluated after 13 days
Summary of the method: as §2

rice (Oryza sativa) = test: as above; settings: 250 g ai/ha, Flood, applied to paddy water, evaluated after 13 days
Summary of the method: as §2

[13] = system: foxtail, giant (giant foxtail, Setaria faberi); test: Test A preemergence soil spray, visual injury rating 0-100; settings: 1000 g ai/ha, 10 days, 0 = no effect, 100 = complete control
Summary of the method: as §1

[14] = system: blackgrass (Alopecurus myosuroides); test: as above; settings: 1000 g ai/ha, 10 days, 0 = no effect, 100 = complete control
Summary of the method: as §1

[15] = system: ragweed (common ragweed, Ambrosia artemisiifolia); test: as above; settings: 1000 g ai/ha, 10 days, 0 = no effect, 100 = complete control
Summary of the method: as §1

[16] = system: palmer (palmer amaranth, palmer pigweed, Amaranthus palmeri); test: as above; settings: 1000 g ai/ha, 10 days, 0 = no effect, 100 = complete control
Summary of the method: as §1

[17] = system: barnyardgrass (Echinochloa crus-galli); test: as above; settings: 1000 g ai/ha, 10 days, 0 = no effect, 100 = complete control
Summary of the method: as §1

[18] = system: ryegrass, Italian (italian ryegrass, Lolium multiflorum); test: as above; settings: 1000 g ai/ha, 10 days, 0 = no effect, 100 = complete control
Summary of the method: as §1

kochia (Bassia scoparia) [19] = test: as above; settings: 1000 g ai/ha, 10 days, 0 = no effect, 100 = complete control
Summary of the method: as §1

| SMILES | Foxtail, Giant plant response rating [1] | Blackgrass plant response rating [2] | Ragweed plant response rating [3] | Galium plant response rating [4] | Amaranth, Palmer plant response rating [5] | Barnyardgrass plant response rating [6] | Ryegrass, Italian plant response rating [7] | Horseweed plant response rating [8] | Kochia plant response rating (kochia (Bassia scoparia) [9]) | Plant response rating, Barnyardgrass (0 to 100 scale, 0 is no effect and 100 is complete control) [10] | Plant response rating, Sedge, Umbrella (0 to 100 scale, 0 is no effect and 100 is complete control) [11] | Plant response rating, Ducksalad (0 to 100 scale, 0 is no effect and 100 is complete control) [12] | Plant response rating, Rice (0 to 100 scale, 0 is no effect and 100 is complete control) (rice (Oryza sativa)) | Foxtail, Giant plant response rating (0 to 100 scale) [13] | Blackgrass plant response rating (0 to 100 scale) [14] | Ragweed plant response rating (0 to 100 scale) [15] | Amaranth, Palmer / Pigweed, Palmer plant response rating (0 to 100 scale) [16] | Barnyardgrass plant response rating (0 to 100 scale) [17] | Ryegrass, Italian plant response rating (0 to 100 scale) [18] | Kochia plant response rating (0 to 100 scale) (kochia (Bassia scoparia) [19]) |
| --- | --- | --- | --- | --- | --- | --- | --- | --- | --- | --- | --- | --- | --- | --- | --- | --- | --- | --- | --- | --- |
| CCCS(=O)(=O)NC(=O)C1C=CC(NC(=O)C2(C)CN(c3cc(F)cc(F)c3)C(=O)O2)C1 (stereo not drawn) [Compound 50] | 90 | 90 | 70 | 80 | 90 | 90 | 100 | 70 | 70 | 60 | 60 | 70 | 75 | 90 | 90 | 50 | 100 | 90 | 100 | 100 |
| CSCCOC(=O)[C@@H]1C=C[C@H](NC(=O)C2(C)CN(c3cc(F)cc(F)c3)C(=O)O2)C1 (stereo partly drawn) [Compound 48, 2-(Methylthio)ethyl (1S,4R)-4-[[[3-(3,5-difluorophenyl)-5-methyl-2-oxo-5-oxazolidinyl]carbonyl]amino]-2-cyclopentene-1-carboxylate] | 90 | 100 | 70 | 80 | 90 | 90 | 90 | 70 | 70 | 70 | 80 | 70 | 65 | 100 | 90 | 90 | 100 | 100 | 100 | 100 |
| CC(C)OC(=O)C1C=CC(NC(=O)C2(C)CN(c3cc(F)cc(F)c3)C(=O)O2)C1 (stereo not drawn) [Compound 52] | 90 | 90 | 70 | 80 | 90 | 100 | 60 | 100 | 70 | 75 | 90 | 60 | 65 | 100 | 90 | 90 | 100 | 100 | 100 | 100 |
